These results are taken from patent US5618812A, “Benzodiazepine derivatives” (Merck Sharp & Dohme, Ltd., priority 1992, dated 1997).

In one experiment the target is T1, CCK-A (Rattus norvegicus, UniProt P30551).
T1 sequence (P30551 1-444): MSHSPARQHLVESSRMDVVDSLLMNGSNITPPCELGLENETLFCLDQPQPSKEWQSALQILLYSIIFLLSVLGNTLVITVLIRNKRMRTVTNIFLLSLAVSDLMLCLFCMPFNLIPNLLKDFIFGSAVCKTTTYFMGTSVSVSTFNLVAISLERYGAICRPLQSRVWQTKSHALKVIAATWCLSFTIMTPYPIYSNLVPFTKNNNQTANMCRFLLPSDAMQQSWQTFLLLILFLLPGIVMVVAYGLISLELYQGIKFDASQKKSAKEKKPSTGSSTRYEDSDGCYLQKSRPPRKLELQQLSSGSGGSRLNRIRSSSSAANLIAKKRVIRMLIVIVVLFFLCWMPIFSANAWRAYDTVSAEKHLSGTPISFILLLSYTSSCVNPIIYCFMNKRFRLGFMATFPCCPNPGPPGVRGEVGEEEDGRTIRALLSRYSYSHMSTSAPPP
Description: biochemical. The note with it: rat pancreas (CCK-A), 125I-CCK; read-out: CCK RECEPTOR BINDING RESULTS IC50 125I-CCK Pancreas. The class given is binding. Here is the method: The CCK-A and CCK-B antagonising activity of the compounds described herein was evaluated using the assays described in published European patent application no. 0514133. The method essentially involves determining the concentration of the test compound required to displace 50% of the specific ^125 I-CCK from rat pancreas (CCK-A) or guinea pig brain (CCK-B).

The target in a further experiment is T2, CCK-B (Cavia porcellus, UniProt H0VZC5).
T2 construct: guinea pig brain (CCK-B); from tissue; host or cells: guinea pig brain
T2 sequence (H0VZC5 1-426): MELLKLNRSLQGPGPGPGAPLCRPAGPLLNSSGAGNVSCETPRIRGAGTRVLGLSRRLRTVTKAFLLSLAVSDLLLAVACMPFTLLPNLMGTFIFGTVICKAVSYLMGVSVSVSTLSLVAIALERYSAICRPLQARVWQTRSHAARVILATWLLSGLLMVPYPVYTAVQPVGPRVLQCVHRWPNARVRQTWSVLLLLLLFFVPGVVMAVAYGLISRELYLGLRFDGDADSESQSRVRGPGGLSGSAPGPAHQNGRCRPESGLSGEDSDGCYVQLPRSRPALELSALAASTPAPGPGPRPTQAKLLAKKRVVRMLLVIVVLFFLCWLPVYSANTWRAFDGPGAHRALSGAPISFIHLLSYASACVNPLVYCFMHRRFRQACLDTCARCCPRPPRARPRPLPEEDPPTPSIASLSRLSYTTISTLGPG
Description: displacement of specific 125I-CCK from guinea pig brain (CCK-B receptor binding). Particulars: read-out: CCK RECEPTOR BINDING RESULTS IC50 125I-CCK Brain. Here is the method:
The CCK-A and CCK-B antagonising activity of the compounds described herein was evaluated using the assays described in published European patent application no. 0514133. The method essentially involves determining the concentration of the test compound required to displace 50% of the specific ^125 I-CCK from rat pancreas (CCK-A) or guinea pig brain (CCK-B). The data in Table 1 were obtained for compounds of the Examples.

Structures are written as SMILES. Structures can show the parent of a compound that is named as a salt. Where only a bound is given, the exact number is not on record here.

As a reminder, the IC50 is the point on the concentration scale where inhibition reaches its midpoint. Turning to `CCCN(C1=NC(NC(=O)Nc2cccc(C)c2)C(=O)N(C)c2ccccc21)C1CCCCC1` (racemic) [Example 79, N-[3(R,S)-5-(N-Cyclohexyl-N-propylamino)-2,3-dihydro-1-methyl-2-oxo-1H-benzodiazepin-3-yl]-N'-[3-methylphenyl]urea], the IC50 at CCK-A is 1700 nM; on CCK-B, 13.4 nM.
Taken in the same sequence, the figures for `Cc1cccc(NC(=O)NC2N=C(N(Cc3ccccc3)C3CCCCC3)c3ccccc3N(C)C2=O)c1` (racemic) [Example 80, N-[3(R,S)-5-(N-Benzyl-N-cyclohexylamino)-2,3-dihydro-1-methyl-2-oxo-1H-1,4-benzodiazepin-3-yl]-N'-[3-methylphenyl]urea] were 1140 nM and 32.4 nM.
Taken in the same sequence, the figures for `Cc1cccc(NC(=O)NC2N=C(NC3CCCCC3)c3ccccc3N(C)C2=O)c1` (racemic) [Example 81, N-[3(R,S)-5(N-Cyclohexylamino)-2,3-dihydro-1-methyl-2-oxo-1H-1,4-benzodiazepin-3-yl]-N'-[3-methylphenyl]urea] were 14.9 nM and 23.2 nM.
`CN1C(=O)C(NC(=O)Nc2ccc3c(c2)CCC3)N=C(N(C)C2CCCCC2)c2ccccc21` (racemic) [Example 82, N-[3(R,S)-5-(N-Cyclohexyl-N-methylamino)-2,3-dihydro-1-methyl-2-oxo-1H-1,4-benzodiazepin-3-yl]-N'-[5-indanyl]urea]: the results for the IC50 at CCK-A and at CCK-B were 815 nM and 0.47 nM, respectively.
Taken in the same sequence, the figures for `Cc1cccc(NC(=O)NC2N=C(N(C)C3CCCCCCC3)c3ccccc3N(C)C2=O)c1` (racemic) [Example 83, N-[3(R,S)-5-(N-Cyclooctyl-N-methylamino)-2,3-dihydro-1-methyl-2-oxo-1H-1,4-benzodiazepin-3-yl]-N'-[3-methylphenyl]urea] were 283 nM and 3.67 nM.
Consider `Cc1cccc(NC(=O)NC2N=C(NCCN(C)C)c3ccccc3N(C)C2=O)c1` (racemic) [Example 84, N-[3(R,S)-2,3-Dihydro-5-(2-(N,N-dimethylamino)ethylamino)-1-methyl-2-oxo-1H-1,4-benzodiazepin-3-yl]-N'-[3-methylphenyl]urea dihydrochloride], for which the values for the IC50 on CCK-A and at CCK-B were greater than 3000 nM and 1900 nM, respectively.
Taken in the same sequence, the figures for `Cc1cccc(NC(=O)NC2N=C(N(C)CCN3CCOCC3)c3ccccc3N(C)C2=O)c1` (racemic) [Example 85, N-[3(R,S)-2,3-Dihydro-5-(N-(2-N-morpholinoethyl)-N-methylamino)-1-methyl-2-oxo-1H-1,4-benzodiazepin-3-yl]-N'-[3-methylphenyl]urea] were greater than 3000 nM and 785 nM.
As to `Cc1cncc(NC(=O)NC2N=C(N(C)C3CCCCCC3)c3ccccc3N(C)C2=O)c1` (racemic) [Example 86, N-[3(R,S)-5-(N-Cycloheptyl)-N-methylamino)-2,3-dihydro-1-methyl-2-oxo-1H-1,4-benzodiazepin-3-yl]-N'-[3-(5-methylpyridine)]urea], the IC50 at CCK-A turned out to be 831 nM; on CCK-B, 31.3 nM.
Regarding `CN1C(=O)C(NC(=O)c2cc3ccccc3[nH]2)N=C(N2CC3CCC(CC3)C2)c2ccccc21` (racemic) [Example 87, 3(R,S)-N-(5-(3-Azabicyclo[3,2,2]nonan-3-yl)-2,3-dihydro-1-methyl-2-oxo-1H-1,4-benzodiazepin-3-yl)-1H-indole-2-carboxamide], the IC50 at CCK-A turned out to be 0.87 nM; at CCK-B, 509 nM.
In the case of `CC(C)CN1C(=O)C(NC(=O)c2cc3ccccc3[nH]2)N=C(N2CCCCCC2)c2ccccc21` (racemic) [Example 90, 3(R,S)-N-(2,3-Dihydro-5-(homopiperidin-1-yl)-1-(2-methylpropyl)-2-oxo-1H-1,4-benzodiazepin-3-yl)-1H-indole-2-carboxamide], the values for the IC50 on CCK-A and at CCK-B were 8.7 nM and 225 nM, respectively.
Taken in the same sequence, the figures for `CC(C)CN1C(=O)C(NC(=O)Cc2c[nH]c3ccccc23)N=C(N2CCCCCC2)c2ccccc21` (racemic) [Example 94, 3(R,S)-N-(2,3-Dihydro-5-(homopiperidin-1-yl)-1-(2-methylpropyl)-2-oxo-1H-1,4-benzodiazepin-3-yl)-1H-indole-3-acetamide] were 646 nM and 119 nM.
Turning to `CC(C)CN1C(=O)C(NC(=O)c2cc3ccccc3[nH]2)N=C(N2CCC(C)CC2)c2ccccc21` (racemic) [Example 95, 3(R,S)-N-(2,3-Dihydro-5-(4-methylpiperidin-1-yl)-1-(2-methylpropyl)-2-oxo-1H-1,4-benzodiazepin-3-yl)-1H-indole-2-carboxamide], the IC50 on CCK-A was 11.6 nM; at CCK-B, 161 nM.
Regarding `CC1CCN(C2=NC(NC(=O)Nc3cccc(N4CCN(C)CC4)c3)C(=O)N(C)c3ccccc32)CC1` (racemic) [Example 96, N-[3(R,S)-2,3-Dihydro-1-methyl-5-(4-methylpiperidin-1-yl)-2-oxo-1H-1,4-benzodiazepin-3-yl]N'-[3-(N-methyl-N'-piperazinyl)phenyl]urea], the results for the IC50 on CCK-A and on CCK-B were 94.1 nM and 148 nM, respectively.
Taken in the same sequence, the figures for `Cc1cccc(NC(=O)NC2N=C(N3C[C@H]4CCCC[C@H]4C3)c3ccccc3N(C)C2=O)c1` (relative stereo) [Example 57, N-[3(R,S)-2,3-Dihydro-1-methyl-5-(cis-octahydroisoindol-2-yl)-2-oxo-1H-1,4-benzodiazepin-3-yl]-N'-[3-methylphenyl]urea] were 12.3 nM and 4.6 nM.
In the case of `CN1C(=O)C(NC(=O)Nc2ccc3c(c2)CCC3)N=C(N2CCC(C)(C)CC2)c2ccccc21` (single isomer, unassigned) [5 (enantiomer A)], the values for the IC50 at CCK-A and on CCK-B were 738 nM and 0.49 nM, respectively.
For `CN1C(=O)C(NC(=O)Nc2ccc3c(c2)CCC3)N=C(N2CCC(C)(C)CC2)c2ccccc21` (single isomer, unassigned) [5 (enantiomer B)], the IC50 at CCK-A turned out to be 7.8 nM; at CCK-B, 14.8 nM.
On to `Cc1cccc(NC(=O)NC2N=C(N3CCC(C)CC3)c3ccccc3N(C)C2=O)c1` (single isomer, unassigned) [8 (enantiomer A)], for which the IC50 turned out to be 981 nM at CCK-A and 0.35 nM at CCK-B.
Taken in the same sequence, the figures for `Cc1cccc(NC(=O)NC2N=C(N3CCC(C)CC3)c3ccccc3N(C)C2=O)c1` (single isomer, unassigned) [8 (enantiomer B)] were 2.61 nM and 23.2 nM.
On to `Cc1cccc(NC(=O)NC2N=C(N3CCC(C)(C)CC3)c3ccccc3N(C)C2=O)c1` (single isomer, unassigned) [10 (enantiomer A)], for which the values for the IC50 on CCK-A and at CCK-B were 421 nM and 0.76 nM, respectively.
Taken in the same sequence, the figures for `Cc1cccc(NC(=O)NC2N=C(N3CCC(C)(C)CC3)c3ccccc3N(C)C2=O)c1` (single isomer, unassigned) [10 (enantiomer B)] were 0.42 nM and 12.6 nM.
With `COC1CCN(C2=NC(NC(=O)Nc3cccc(C)c3)C(=O)N(C)c3ccccc32)CC1` (single isomer, unassigned) [14 (enantiomer A)], the IC50 at CCK-A amounted to 3220 nM; at CCK-B, 11.6 nM.
Regarding `COC1CCN(C2=NC(NC(=O)Nc3cccc(C)c3)C(=O)N(C)c3ccccc32)CC1` (single isomer, unassigned) [14 (enantiomer B)], the IC50 worked out at 11.4 nM on CCK-A and 174 nM at CCK-B.
